Data on two molecules can be found in US5523320A, “N-methyldeacetylcolchiceinamide derivatives” (Ohgen Research Laboratories, Ltd., priority 1993, dated 1996).

For data set [1] the following is noted: literature / background; cited from earlier work.
The test system of another data set is cancer cells. The following applies: literature; cited from earlier work.
The subject of a further data set is CDF male mice. The data set can be described thus: Acute toxicity test (intraperitoneal, 10 days observation). The data set is classed as in vivo, mouse. The following applies: i.p. From the text:
Test example 2: Acute toxicity test

In data set [2] the test system is mouse leukemic cells P388/S. The data set can be described thus: In vitro cancer cell proliferation inhibition (Trypan Blue living cell count, 2 days culture). The data set is classed as cell-based. The following applies: three separate experiments. The method, then: (§1) Test example 1: In vitro cancer cell proliferation inhibiting text
(§2) Mouse leukemic cells p388/S and adriamycin-resistant mouse leukemic cells P388/ADR subculturally transplanted in the abdominal cavity of mice were taken out together with the asites therefrom, respectively, and after washing, suspended in RPMI 1640 media (each containing 10% fetal bovine serum and 10 μM 2-mercaptoethanol) to 2×10^5 cells/ml, respectively. 0.5 vol. % each of test solutions (solutions of the compound of the later-described in Example 1 in dimethylsulfoxide) were added to portions of each of these cell suspensions, respectively; and the mixtures were separately put into a 24-well culture plate and subjected to culture for 2 days in a 5% carbon dioxide culturing vessel. A 0.5% Trypan Blue solution was added to each of the cell culture broths in the same amount, and the 50% proliferation inhibitory concentration (IC50) of the compound of Example 1 was determined by counting the number of the cells not stained as living cells under a microscope.

The test system of data set [3] is adriamycin-resistant mouse leukemic cells P388/ADR. The data set is described as above. The class given is cell-based. The following applies: three separate experiments. The method, then:
as §1, §2

In brackets after ≈: the same amount, converted by molar mass. Several values for one entry are separate records, joined by “and”; a condition that tells them apart may be missing. Equal values may be shown once.

As for `COc1cc2c(c(OC)c1OC)-c1ccc(OC)c(=O)cc1C(NC(C)=O)CC2` (stereo not shown) [colchicine], in data set [1], the toxicity entry was “strong toxicity”. Also, the “pharmacological actions on cancer cells” value with cancer cells is given as “has pharmacological actions on cancer cells, gout, etc”.
With `CNc1ccc2c(cc1=O)C(NC(=O)C1COC(C)(C)O1)CCc1cc(OC)c(OC)c(OC)c1-2` (stereo not shown) [Example 1, N-(O,O-isopropylideneglyceroyl)-N-methyldeacetylcolchiceinamide], the “acute toxicity symptoms: diarrhea or constipation” value in the data set on CDF male mice (groups of high dose) is “cases where diarrhea or constipation arose were observed”. The “acute toxicity symptoms: lie of hair” value with CDF male mice (on and after one day after administration) is listed as “the lie of hair got worse”. In addition, the “acute toxicity symptoms: walking problems and paralysis” value in the data set on CDF male mice (survival cases in the 47 mg/kg administration group) was “walking problems as in the right leg and paralysis of one side of the body”. For the same molecule, the body weight change result in the data set on CDF male mice (up to 2 to 4 days after administration and thereafter) was “tended to decrease up to 2 to 4 days after administration, but thereafter increased gradually”. The IC50 in data set [2] (Mus musculus, 48 h, read-out: Cytotoxicity IC50 (50% proliferation inhibitory concentration)) was 3.2 ng/mL (≈ 0.0066 µM); in data set [3] (Mus musculus, P388/ADR, 48 h, read-out: Cytotoxicity IC50 (50% proliferation inhibitory concentration)), 9.2 ng/mL (≈ 0.019 µM). Also, the “Cytotoxicity IC50 (50% proliferation inhibitory concentration)” value was 4.2 ng/mL and 4.6 ng/mL in data set [2] (2880 min); 11.0 ng/mL and 11.1 ng/mL in data set [3] (2880 min).
